Results on one compound are retold here after ChEMBL document CHEMBL2073790, “TP-search Transporter Database” (Jpn Pharmacol Ther, 1998).

Series [1] addresses Multidrug resistance protein 1a (Rattus norvegicus) (UniProt Q6PSM0). Put plainly: (§1) TP_TRANSPORTER: Northern blot in vivo Wistar rat. The class given is functional, organism-based.
The target in series [2] is T1, Solute carrier organic anion transporter family member 1A1 (Rattus norvegicus, UniProt P46720).
T1 sequence (P46720 whole entry): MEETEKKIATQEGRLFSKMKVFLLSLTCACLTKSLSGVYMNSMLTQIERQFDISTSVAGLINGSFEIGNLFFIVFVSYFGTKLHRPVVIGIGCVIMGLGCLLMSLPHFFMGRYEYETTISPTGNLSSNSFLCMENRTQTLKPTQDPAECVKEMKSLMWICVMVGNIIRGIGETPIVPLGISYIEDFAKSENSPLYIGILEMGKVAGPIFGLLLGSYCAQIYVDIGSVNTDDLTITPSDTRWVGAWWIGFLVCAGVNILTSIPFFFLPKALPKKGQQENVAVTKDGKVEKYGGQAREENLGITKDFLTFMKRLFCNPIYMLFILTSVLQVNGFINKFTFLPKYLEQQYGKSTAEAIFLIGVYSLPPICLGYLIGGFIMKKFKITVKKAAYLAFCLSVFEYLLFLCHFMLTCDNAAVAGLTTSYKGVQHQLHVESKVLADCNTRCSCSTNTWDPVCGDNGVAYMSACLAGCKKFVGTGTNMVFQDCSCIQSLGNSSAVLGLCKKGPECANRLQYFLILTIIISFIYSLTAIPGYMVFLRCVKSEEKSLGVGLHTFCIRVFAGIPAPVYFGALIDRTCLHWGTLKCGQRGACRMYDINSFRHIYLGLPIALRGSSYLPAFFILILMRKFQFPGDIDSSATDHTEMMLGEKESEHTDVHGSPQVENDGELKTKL
Described as §1. The class given is functional, organism-based.

Multidrug resistance protein 1a (Rattus norvegicus), sequence (Q6PSM0 as listed by the source): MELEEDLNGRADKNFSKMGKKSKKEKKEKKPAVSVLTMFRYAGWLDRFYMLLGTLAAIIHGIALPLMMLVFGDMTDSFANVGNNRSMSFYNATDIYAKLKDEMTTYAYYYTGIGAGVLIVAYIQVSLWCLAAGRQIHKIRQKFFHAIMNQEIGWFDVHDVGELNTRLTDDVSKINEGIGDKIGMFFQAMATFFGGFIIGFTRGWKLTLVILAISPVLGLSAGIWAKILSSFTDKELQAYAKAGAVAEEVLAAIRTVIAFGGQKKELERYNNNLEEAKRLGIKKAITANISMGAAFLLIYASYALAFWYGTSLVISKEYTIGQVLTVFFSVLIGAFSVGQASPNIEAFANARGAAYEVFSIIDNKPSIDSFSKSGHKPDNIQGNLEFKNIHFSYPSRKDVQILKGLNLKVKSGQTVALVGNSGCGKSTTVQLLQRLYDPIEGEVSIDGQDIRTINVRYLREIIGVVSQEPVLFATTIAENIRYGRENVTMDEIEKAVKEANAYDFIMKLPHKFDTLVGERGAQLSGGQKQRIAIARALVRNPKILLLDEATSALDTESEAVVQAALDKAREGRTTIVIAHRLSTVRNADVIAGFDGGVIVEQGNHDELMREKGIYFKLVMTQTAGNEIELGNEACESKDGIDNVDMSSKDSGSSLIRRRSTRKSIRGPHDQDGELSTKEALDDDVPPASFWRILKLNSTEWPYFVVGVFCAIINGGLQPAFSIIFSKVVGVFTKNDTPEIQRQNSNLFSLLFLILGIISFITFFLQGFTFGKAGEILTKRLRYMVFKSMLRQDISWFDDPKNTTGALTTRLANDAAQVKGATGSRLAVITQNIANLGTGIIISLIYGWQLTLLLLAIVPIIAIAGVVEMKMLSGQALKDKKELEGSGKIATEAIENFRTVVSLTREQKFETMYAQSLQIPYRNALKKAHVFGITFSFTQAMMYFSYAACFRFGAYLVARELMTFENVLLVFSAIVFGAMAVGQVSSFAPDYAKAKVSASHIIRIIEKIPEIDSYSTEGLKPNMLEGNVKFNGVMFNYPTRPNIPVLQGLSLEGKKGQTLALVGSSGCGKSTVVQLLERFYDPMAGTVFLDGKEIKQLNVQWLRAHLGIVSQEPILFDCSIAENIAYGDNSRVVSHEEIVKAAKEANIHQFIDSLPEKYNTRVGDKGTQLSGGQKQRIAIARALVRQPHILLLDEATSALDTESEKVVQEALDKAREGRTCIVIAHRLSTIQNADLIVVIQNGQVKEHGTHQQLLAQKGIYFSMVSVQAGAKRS

Turning to `O=C=Nc1cccc2ccccc12` [alpha-naphthylisocyanate], the Activity entry in series [1] and in series [2] was “inducer [+]” throughout.
